Laboratory results as given in the supplement of paper PMC10307832.

Experiments:
Assay in all cases: relative viability (nuclei count vs DMSO), 5 days (fraction); higher = more cells survive
Selisistat + Palbociclib = compound: C1CC(C2=C(C1)C3=C(N2)C=CC(=C3)Cl)C(=O)N [Selisistat] + CC(=O)c1c(C)c2cnc(Nc3ccc(N4CCNCC4)cn3)nc2n(C2CCCC2)c1=O [Palbociclib] (partner 0.5 µM)
Method in brief: (§1)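 Values are medians from duplicate plates. Each reflects relative viability, defined as the nuclei count of treated wells over that of vehicle wells. Lung cancer cell lines in 1536-well plates were pin-tool dosed one day after seeding with one drug alone or with a fixed anchor-drug dose plus five library-drug doses (not always all listed) in √10 steps, then fixed, stained and imaged at 4× after 5 days.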

Serdemetan + Crizotinib = compound: c1ccc2c(CCNc3ccc(Nc4ccncc4)cc3)c[nH]c2c1 [Serdemetan] + C[C@@H](Oc1cc(-c2cnn(C3CCNCC3)c2)cnc1N)c1c(Cl)ccc(F)c1Cl [Crizotinib] (partner 1 µM)
Method in brief: as §1

Selisistat + Navitoclax = compound: C1CC(C2=C(C1)C3=C(N2)C=CC(=C3)Cl)C(=O)N [Selisistat] + CC1(C)CCC(c2ccc(Cl)cc2)=C(CN2CCN(c3ccc(C(=O)NS(=O)(=O)c4ccc(N[C@H](CCN5CCOCC5)CSc5ccccc5)c(S(=O)(=O)C(F)(F)F)c4)cc3)CC2)C1 [Navitoclax] (partner 0.5 µM)
Method in brief: as §1

Serdemetan + Linsitinib = compound: c1ccc2c(CCNc3ccc(Nc4ccncc4)cc3)c[nH]c2c1 [Serdemetan] + C[C@]1(O)C[C@@H](c2nc(-c3ccc4ccc(-c5ccccc5)nc4c3)c3c(N)nccn32)C1 [Linsitinib] (partner 1 µM)
Method in brief: as §1

Cell Line	relative viability (Selisistat + Palbociclib; first compound 0.4 µM)	relative viability (Selisistat + Palbociclib; first compound 1.265 µM)	relative viability (Selisistat + Palbociclib; first compound 4 µM)	relative viability (Selisistat + Palbociclib; first compound 12.65 µM)	relative viability (Selisistat + Palbociclib; first compound 40 µM)	relative viability (Serdemetan + Crizotinib; first compound 0.04 µM)	relative viability (Serdemetan + Crizotinib; first compound 0.1265 µM)	relative viability (Serdemetan + Crizotinib; first compound 0.4 µM)	relative viability (Serdemetan + Crizotinib; first compound 1.265 µM)	relative viability (Serdemetan + Crizotinib; first compound 4 µM)	relative viability (Selisistat + Navitoclax; first compound 0.4 µM)	relative viability (Selisistat + Navitoclax; first compound 1.265 µM)	relative viability (Selisistat + Navitoclax; first compound 4 µM)	relative viability (Selisistat + Navitoclax; first compound 12.65 µM)	relative viability (Selisistat + Navitoclax; first compound 40 µM)	relative viability (Serdemetan + Linsitinib; first compound 0.04 µM)	relative viability (Serdemetan + Linsitinib; first compound 0.1265 µM)	relative viability (Serdemetan + Linsitinib; first compound 0.4 µM)	relative viability (Serdemetan + Linsitinib; first compound 1.265 µM)	relative viability (Serdemetan + Linsitinib; first compound 4 µM)
201T	0.369	0.338	0.32	0.333	0.365	1.05	1.03	0.948	0.927	0.879	1.21	1.17	1.16	1.25	1.25	1.04	1.03	1.01	1.02	0.781
A549						0.807	0.757	0.764	0.578	0.306	1.27	1.14	1.34	1.28	1.28	0.595	0.578	0.631	0.42	0.179
A-427	0.57	0.485		0.57	0.554	0.919	0.789	0.662	0.287	0.404	0.98	0.986	1.04	0.878	1.11	1.06	1.04	1.07	0.883	0.576
ABC-1	0.713	0.695		0.563	0.735	0.926	1	0.817	0.69	0.475						0.85	0.87	0.738	0.6	0.489
BEN	0.467	0.502	0.486	0.448	0.459	0.826	0.864	0.944	0.759	0.64	0.0717	0.0697	0.0619	0.0731	0.0771	0.857	0.929	0.956	0.875	0.679
CAL-12T	0.534	0.41	0.122	0.448	0.409	0.63	0.705	0.608		0.74	1.19	1.04	1.16	1.22	1.14	0.77	0.793	0.698	0.864	0.651
COR-L23	0.372	0.296	0.332	0.305	0.296	0.679	0.578	0.771	0.589	0.564	0.994	1.09	1.07	0.939	0.928	0.906	0.752	0.891	0.688	0.788
COR-L 105	0.427	0.378	0.397	0.419	0.437	0.729	0.716	0.709	0.874	0.838	0.635	0.763	0.671	0.815	0.823	0.86	1.14	0.847	1.04	0.845
Calu-6						0.832	0.718	0.712	0.566	0.527	0.832	0.779	0.84	0.82	0.789	0.895	0.962	0.958	0.913	0.698
ChaGo-K-1	0.91	0.918	0.832	0.816	0.889		1.11	1.11	0.714	0.43	0.959	1.1		0.881	0.901					
EBC-1						0.19	0.214	0.188	0.19	0.181	0.526	0.416	0.433	0.448	0.459	0.807	0.904	0.952	0.794	0.634
EKVX	0.364	0.351	0.329	0.376	0.353	0.899	0.894	0.913	0.897	0.98	0.905	0.918	0.745	0.874	0.945	0.997	0.971	0.861	0.968	0.639
EMC-BAC-2	0.523	0.525	0.586	0.282	0.319	0.727	0.778	0.694	0.5	0.39	1.13	1.09	1.07	1.15	1.2	0.802	0.753	0.787	0.755	0.613
EPLC-272H	0.343	0.323		0.334	0.368	0.939	0.692	0.868	0.612	0.837	1.07	1.16		1.23	1.25	1.29	1.18	1.07	1	0.703
H3255	0.348	0.295	0.33	0.303	0.32	0.723	0.836	0.811	0.746	0.853	0.512	0.643	0.293	0.438	0.511	0.938	0.832	0.931	1.03	0.814
HARA	0.295	0.242	0.241	0.275	0.251	0.856	0.971	0.966		0.601	1.17	1.08	1.17	1.13	1.22	0.948	0.865	0.854		0.441
HCC-15	0.755	0.854	0.586	0.748	0.885	0.795	0.852	0.743	0.584	0.58	0.778	0.737		0.756	0.742	0.861	0.893	0.797	0.647	0.62
